Test results published in patent US11919972B2, “Peptide libraries with non-canonical amino acids” (REGENERON PHARMACEUTICALS, INC., priority 2018, dated 2024).
Square brackets hold non-standard residues; d marks the D form. Ends that are not written are not given here. Ala(cPr) = N[C@@H](CC1CC1)C(=O)O

Tests used:
CD8+ SupT1 cells [1] = experiment: Screen of focused OBOC peptide library against CD8+ cells; assay type: cell-based; details: 10% FBS
Method: In addition to screening the focused library against recombinant human CD8 protein, the library was screened against cells. Non-specific PCCs were identified and removed by an anti-screen against CD8− Jurkat cells. The pre-cleared library entered into a screen against CD8+ SupT1 cells in 2% FBS for 1 h at 4° C. […] Non-canonical amino acids including cyclopropyl alanine, thiazolyl alanine, 4-fluorophenylalanine, and 1-methyltryptophan were identified among the hits. The consensus sequence from the hits in Table 6 is trrkr (SEQ ID NO:30).
Because of the large number of electrostatic hits in the screen with 2% FBS, additional screens were performed varying the blocking conditions to decrease the quantity of electrostatic hits. In particular, screens using 10% FBS gave no hits with any electrostatic amino acids. These conditions ultimately identified tnpks (SEQ ID NO:31) and tp(CyA)k(Fp).

CD8+ SupT1 cells [2] = experiment: Flow cytometry binding to CD8+ SupT1 and CD8− Jurkat cells; assay type: cell-based; details: FIG. 1
Source text: FIG. 1 is a graph binding of some example peptides to CD8+ cells (SuppT1 cells) and CD8− cells (Jurkat cells).
The hits identified in the non-canonical screen were further evaluated in CD8+ SupT1 and CD8− Jurkat cells by flow cytometry.

Row | Substance | hit in CD8+ cell screen with varied blocking conditions (CD8+ SupT1 cells [1]) | binding to CD8 compared with parent compound tfpkk (CD8+ SupT1 cells [2])
1 | tnpks: hit identified in CD8+ cell screen using 10% FBS (TNPKS; (1)..(5) D amino acids) | identified | 
2 | tp(CyA)k(FP): hit sequence following CD8+ cell screen; also identified in 10% FBS screen ([dT][dP][Ala(cPr)][dK]X; not fully specified (residue 5); printed as tp(CyA)k(FP)) | identified | improved binding to CD8 over the parent compound
